According to US20230346884A1, “Molecular Targets for Modulation of Dissociative and Associative States” (The Board of Trustees of the Leland Stanford Junior …, priority 2020, published 2023):

How the values were obtained:
[1] = tested on: retrosplenial cortex (RSP) neurons; assay: Two-photon imaging of RSP; assay type: in vivo, mouse
Experimental: Mice were anesthetized with isoflurane and the skull above retrosplenial cortex was removed and replaced with a 7 mm circular glass coverslip. For layer 1 experiments, ThylGcaMP6s mice were used. For layer 2/3 experiments, Cux2-CreER;Ai148 mice were used (tamoxifen dissolved in corn oil was injected intraperitoneally at 0.1 mg/g at least 2 weeks prior to imaging). For layer 5 experiments, Rbp4-Cre mice were injected locally in retrosplenial with 800 nL AAVdj-Ef1a-DIO-GCaMP6f (titer 5E12) at stereotactic coordinates (−3AP, 0.5 ML, −0.6DV). Mice were given >=1 week to recover before imaging. Awake, head-fixed imaging was performed on a standard two photon microscope (NeuroLabWare, Los Angeles, CA). A 16×0.8 NA Nikon objective was immersed in clear ultrasound gel for imaging (Aquasonic, Parker Laboratories); frame rate of 30 Hz. Although we observed oscillations in RSP with 50 mg/kg, we were concerned that 50 mg/kg may be too low a dose to sensitively detect a potentially weaker signal in visual cortex or layer 2/3, and so we used 80 mg/kg in these experiments.
Two-photon tiff stack videos were registered to the average image using the TurboReg ImageJ plug-in using rigid body transformations. […] Contaminating neuropil signal was estimated from an annulus surrounding each soma mask and removed using the function F(t)=Fsoma(t)−0.3*Fneuropil(t), where Fsoma(t) is the somatic DF/F and Fneuropil(t) is the DF/F from an annulus 4 pixels wide surrounding each soma mask. The resulting traces were detrended and z-scored. The full frame fluorescence (used for quantifying layer 1 neuropil oscillations) was computed by summing all of the pixels in each frame on each time point, and then computing DF/F the same way, with no neuropil subtraction step.
Each trace (corresponding to either a fiber photometry signal, a cellular two-photon signal, a widefield regional centroid, a widefield pixel, an sEEG trace, or a smoothed spike rate Neuropixels trace) was z-scored, and the power spectral density (PSD) was then estimated using Welch's method (pwelch( ) in Matlab), with a window size of 10*fs (15*fs for human sEEG) where fs is the sampling rate of the signal. The average band power within a specified band (i.e. 1-3 Hz) was then computed by integrating the PSD estimate (bandpower in Matlab). For displaying the traces of individual cells, traces were each zscored by subtracting the mean value of the trace (across the whole recorded time window) and dividing by the standard deviation of the trace. Unless otherwise indicated, the PSD was computed across the time window from minutes 10 to 11 post-injection.

deep RSP neurons = assay: 32-channel two-shank silicon probe recording in deep RSP; assay type: in vivo, mouse; conditions: 50 mg/kg ketamine
Experimental: Mice were anesthetized with isoflurane, a small craniotomy (˜2 mm diameter) was performed above retrosplenial cortex, and a custom head-plate implanted. The dura was gently removed, and then covered with Kwik-Cast Sealant (World Precision Instruments). A skull screw was implanted and secured with cement in the right frontal skull bone. Mice were given 1-2 hours to recover. […] The deepest tip of the electrode was 800-1000 μm from the brain surface for all recordings.
Extracellular electrophysiological data were recorded using 32 channel acute silicon probes (ASSY-37 P-1, Cambridge Neurotech) acquired at 30 kHz. Following common average referencing, well-isolated single units were identified using KiloSort and Phy. Data were analyzed using custom Matlab scripts. Instantaneous firing rate was computed using 1 ms bins. We used a Hidden Markov Model with two states to label ON and OFF states. ON states were considered to represent bursts, and OFF states were inter-burst intervals. We fit the emission and transition parameters of the model using the Baum-Welch algorithm (Matlab hmmtrain with a convergence threshold of 1 e-6 and initial guesses of transition matrix: [0.95, 0.05; 0.05, 0.95] and emission: [0.5, 0.5; […]]), and then estimated the state assignment at each time point using the Viterbi algorithm (Matlab hmmviterbi). Various initial guesses were tested, and they yielded the same or similar model fit. For population analyses, a bin size of 2 was used. In FIG. 10, we are looking at the number of spikes in each burst, which can vary depending on the neuron being recorded, so we included every burst for every neuron. To quantify the consistency of the sequential onset of activation across bursts, we ranked each unit by its onset time for each burst. We then ordered the units according to their median rank across bursts. For each burst, we fit a linear model between the ranking in that burst and the median rank. The distribution of correlation coefficients was then plotted across bursts for each mouse and treatment condition.

mice [2] = assay: Resident-intruder social interaction assay; assay type: in vivo, mouse
Experimental: Social Interaction Assay: Resident-intruder social interaction was recorded for two minutes. Interactions were defined as close physical proximity behaviors, including sniffing, touching, and following. […] Illumination began 30 seconds before the same-sex intruder mouse was introduced.

mice [3] = assay: Righting reflex assay; assay type: in vivo, mouse
Excerpt: Righting Reflex Assay: Mice were held at the neck and tail, rotated to supine position on a flat surface, and quickly released. Time to right was quantified as moment of release to moment when all 4 legs touched the ground. A five second threshold was used to classify righting success (less than 5 seconds) from failure (more than 5 seconds). […] Illumination began for 30 seconds, and then the mouse was swiftly inverted onto the flat surface.

mice [4] = assay: Observation for seizure-like signs after ketamine; assay type: in vivo, mouse; conditions: dissociative doses of ketamine
Excerpt: One characteristic of seizures is increased synchrony. While the ketamine-induced rhythm involved increased synchrony in neuronal firing, the initiation, spread, maintenance/termination, and behavior were distinguishable from typical seizures.

humans = conditions: human; cited from earlier work
mice [5] = assay: Hot plate test
Experimental: Hot Plate Test: Mice were placed on the hot plate (Bioseb), which was set to 55° C. and surrounded by a clear circular perimeter. Mouse activity was recorded using two cameras from different angles. The experiment ended when the mouse jumped to escape or 90 seconds had elapsed. Care was taken to clean and dry the hot plate apparatus between animals. For optogenetic experiments, mice were connected to patch cords and then returned to a holding cage. Illumination began 30 seconds before mice were placed on the hot plate.

[6] = tested on: neurons throughout the brain; assay: Simultaneous recording from four Neuropixels probes with i.p. drug delivery
Experimental: Mice were anesthetized with isoflurane, carefully leveled in a stereotaxic apparatus and their scalp and periosteum were removed. A 3% hydrogen peroxide in saline solution was used to clean the surface of the skull. A custom stainless steel headbar was leveled on the skull and attached using clear dental cement. After the cement had dried, targeted probe entry sites were stereotaxically marked on the cement layer with a permanent marker (Day 1: “mPFC”, 2.3AP, 0.6 ML; “somatosensory”, −0.7AP, −4.0 ML; “retrosplenial”, −2AP, −1 ML; “subiculum”, −3.5AP, 2.14 ML; Day 2: “OFC”: 2.5AP, 1.5 ML; “mPFC”: 2.3AP, −0.6 ML; “retrosplenial”, −2AP, 1 ML; “thalamus”, −1.5AP, −1.7 ML). […] A 2 mm long insulated platinum-iridium wire was implanted centrally over the cerebellum, with the last several hundred microns bared to serve as an electrical reference.
Mice were acclimated to head fixation and the recording rig over several days before recording. Several hours before recording, mice were anesthetized for approximately 30 minutes each while small 1 mm craniotomies were made over four pre-marked areas. Craniotomies were kept clean of bone fragments and made such that bleeding was minimized. The skull was covered with a pool of saline and with Quik-Cast to protect and keep moist craniotomies before recording. Mice recovered in their homecages before recording. Immediately prior to recording set up, mice were very briefly anesthetized with isoflurane and implanted with an IV catheter system (BD Saf-T-Intima Closed IV Catheter System: 22G ×¾″, containing an integrated Y adaptor and safety lock) to their intraperitoneal cavity and affixed with glue. […] While still anesthetized, mice were headfixed and tubing was secured stably to a custom mouse holder by tape. Quik-Cast was removed from the skull, and craniotomies were briefly cleaned before being submerged in a pool of saline. Four Neuropixels 1.0 probes^43,44, were grounded together with the mouse reference electrode, coated with red fixable dye (CM-Dil, ThermoFisher), positioned over each craniotomy, and carefully inserted at approximately 15 degrees from the vertical axis to depths of 4-5 mm at a rate of approximately 3 um/s. Following the completion of all insertions, the probes were allowed to rest for at least 10 minutes before the recording began. 30 kHz data was acquired from the four probes simultaneously using the Neuropixels control system (as described in the User Manual) and SpikeGLX software (billkarsh.github.io/SpikeGLX/). The four acquisitions were synchronized using a common squarewave signal recorded for all probes and aligned to the nearest pulse edge. Following the beginning of recording, a 20-minute baseline period of activity was collected. […]

[7] = controls (wild-type), 50 mg/kg ketamine

## CNC1(c2ccccc2Cl)CCCCC1=O (stereo not drawn) [ketamine]
[1]; Cux2-CreER mice, ketamine
  Oscillation / population synchrony in layer 2/3 RSP neurons: neither oscillating neurons nor population synchrony were observed
[1]; Rbp4-Cre mice, ketamine
  Oscillation / population synchrony in layer 5 RSP neurons: exhibited synchronous activity
[1]; n=5 mice
  Hedge's g effect-size, mean 1-3 Hz power before/after ketamine, layer 2/3 RSP cells (FIG. 1I): −0.46
  Hedge's g effect-size, mean 1-3 Hz power before/after ketamine, layer 5 RSP cells (FIG. 1I): 3.16
[1]; two-photon, cranial window, 80 mg/kg
  Oscillation in superficial neuropil, RSP vs neighboring visual cortex: observed the oscillation in RSP but not neighboring visual cortex
Deep RSP neurons
  Duration of silent states between bursts: ~250 ms
  Duration of synchronous bursts of deep RSP neurons: ~250 ms
  Participation of units in burst events: nearly all identified units participated in every burst event
  Spikes per burst of individual units: 5-10 spikes/burst
Mice [2]; both channel-knockouts (HCN1, GRIN1), ketamine
  Resident-intruder social interactions vs. wild-type: modestly-recovered
Mice [2]; ketamine >=25 mg/kg
  Resident-intruder interactions: suppressed
Mice [3]; anesthetic ketamine 200 mg/kg
  Righting-reflex test for consciousness: abolished by anesthetic ketamine
Mice [3]; subanesthetic ketamine doses
  Righting-reflex test for consciousness: preserved in all animals
Mice [3]; wild-type and knockout mice, ketamine
  Righting of postural inversion: all mice successfully-righted postural inversion
Mice [4]
  Seizure-like signs: no rigidity, convulsive movements, absence-like states, or salivation/rearing/falling were observed
humans
  Dose at which potent dissociation is consistently reported: 2 to 3 mg/kg
  Doses for anti-depressant effects: 0.3 to 1 mg/kg
Mice [5]; GRIN1 knockouts, ketamine
  Affective behavior: without recovery of affective behavior
Mice [5]; HCN1-KO mice with RSP Cre-virus, 50 mg/kg ketamine
  Affective paw-licking: strikingly restored affective paw-licking
Mice [5]; [7]
  Affective paw-licking: abolished affective paw-licking
  Reflexive paw-flicks: preserving reflexive paw-flicks
Mice [5]; ketamine 13 mg/kg
  Affective behaviors: consistently preserved at 13 mg/kg
Mice [5]; ketamine 25 mg/kg
  Affective behaviors: selectively abolished at 25 mg/kg
Mice [5]; ketamine at 25 and 50 mg/kg
  Affective/emotional defensive behavior (paw-lick): abolished affective/emotional
  Motivational defensive behavior (jump-to-escape): abolished
Mice [5]; ketamine dose series
  Reflexive responses (paw-flick): did not reduce reflexive responses
[6]; 8-12 min after ketamine injection (50 mg/kg i.p.)
  Correlations of brain regions with RSP: correlations with RSP were reduced
[6]; subanesthetic ketamine
  Coupling of anteromedial thalamic neurons with RSP: oscillate out-of-phase with RSP
  Coupling of laterodorsal and anteroventral thalamus: became more-strongly correlated to each other and RSP
  Rhythmicity of subcortical regions: specific subcortical regions (inaccessible to cortical imaging) exhibiting increased rhythmicity
